{"source": "patent US20260077018A1", "about": "“TREATMENT OF MILD TRAUMATIC BRAIN INJURY” (OXEIA BIOPHARMACEUTICALS, INC., priority 2022, published 2026)", "key": {"[1]": {"conditions": "in vivo; cited from earlier work"}, "[2]": {"tested_on": "persistently symptomatic concussion patients", "test": "Phase 2 study of OXE-103 in persistently symptomatic concussion: QOLIBRI quality of life", "format": "in vivo, human", "conditions": "Treated, 13 subjects", "experimental": "Describe the change in quality of life between the two groups. This aim defines one of the secondary objectives. To assess this, the Quality of Life after Brain Injury scale (QOLIBRI) and a Patient Global Assessment of Status (PGAS) are administered. […] The primary objective with this aim assesses the change between days 1 and 14.\nDescribed herein is a randomized, double-blind, placebo-controlled design where 40 subjects will be randomized to either a placebo cohort or a treatment with OXE-103 cohort. We randomize using the RedCap database. The database is set up to share randomization allocation only with the investigational pharmacy. All subjects are consented and begin the screening period within 28 days post-injury. There is a 7-day screening period prior to randomization and commencement of study treatment to allow for assessment of stability of symptom burden. This screening period must start no later than 28 days post-injury. Starting with Day 1 (end of screening period), the treatment cohort receives OXE-103 40ug/kg SC twice daily by self-injection and the placebo group receives a placebo injection SC twice daily. Study drug and placebo are maintained and dispensed by Investigational Pharmacy. Subjects receive an 8-day supply of syringes pre-loaded with OXE-103 or placebo. Each cohort receives the 2nd set of syringes with OXE-103 or placebo at the day 7 visit. No therapies other than OXE-103 are administered during the 14-day treatment period to either cohort. After completion of 14 days of either placebo or OXE-103 treatment, starting with the Day 14 visit, other medications and therapies can be initiated for either cohort as needed.\nQuality of Life (AIM 2): A secondary goal is to examine change in quality of life with treatment of sub-acute concussion. Without bewing bound by theory, it is hypothesized that OXE-103 will reduce symptoms when comparing days 1 and 15 and therefore improve quality of life as assessed by 1) Quality of Life after Brain Injury scale (QOLIBRI) and 2) a PGAS.\nThe QOLIBRI is a 37 item instrument specifically developed to assess health-related quality of life (HRQoL) of individuals after traumatic brain injury. This is built into a RedCap Survey that will be completed online. Since it was developed for TBI as a disease or condition-specific HRQoL instrument, it is expected to be more sensitive than generic quality of life tools. The QOLIBRI was developed by an international task force in two multi-language studies involving over 2000 persons after TBI. Use of a TBI-specific assessment of HRQoL can detect the effects of interventions by measuring physical, psychological, daily life and psychosocial changes typical of TBI. An increase/decrease of 20% in QOLIBRI is judged to represent an improvement.\nThe QOL measures are obtained on day 1, 4, 8, 11, 15, 21, & 44. The completion of these takes an estimated 15 minutes.\n(§1) A Phase 2 study of treatment of persistently symptomatic concussion patients with ghrelin (OXE-103) was undertaken at the University of Kansas Medical Center generally as described in Example 1. The interim results are reported herein (FIG. 1).\n(§2) A study to treat patients with sub-acute concussion using a pharmaceutical formulation of ghrelin (OXE-103) was performed. The completed results from treatment group of 10 patients were compared to a 3 patient placebo group receiving standard of care (SoC). Additionally, two other patients are currently undergoing the treatment arm of the study at the time of the interim report. The study was performed in a randomized, double blind fashion and compared using self-report symptom scoring, quality of life questionnaires, computerized cognitive testing assessing executive function, memory and processing speed, and accelerometer-based balance scoring.\nFeedback from clinicians indicated a 20% decrease in concussion symptoms would be considered clinically significant improvement. […]"}, "[3]": {"tested_on": "persistently symptomatic concussion patients", "test": "Phase 2 study interim analysis, efficacy endpoints overall", "format": "in vivo, human", "experimental": "as §1, §2\nEfficacy endpoints for the interim study were: PCSS—22 symptom concussion scoring scale, QOLIBRI—WHO TBI specific Quality of Life after Brain Injury, and BRAIN CHECK—digital assessment of cognition, balance, visual changes (510K FDA approved).\nFeedback from clinicians indicated a 20% decrease in concussion symptoms would be considered clinically significant improvement. Graphs of QOLIBRI (FIG. 3A), PCSS—total severity score (FIG. 4A), PGAS (FIG. 5A), 4MB3S (FIG. 6A), and PCSS number of symptoms (FIG. 7A) show a black line for 20% change from baseline. The graphs in FIGS. 3A, 4A, 5A, 6A, and 7A show average scores per time point for each endpoint at days 1, 4, 8, 11, 15, 21 and 44 for both the treatment and control (SoC) arms. For PCSS, number of symptoms, PGAS, and 4MBS, a patient is considered to have responded to treatment if percent change is less than or equal to −20% compared to baseline. For QOLIBRI, a patient is considered to have responded to treatment if percent change is greater than or equal to 20% compared to baseline."}, "[4]": {"conditions": "in vivo; cited from earlier work", "remark": "listed apart in the source"}}, "note": "No end group written: not given here. *: point of attachment. Octanoyl = CCCCCCCC(=O)*"}
{"substance": "ghrelin (GSS(Octanoyl)FLSPEHQRVQQRKESKKPPAKLQPR; UniProt Q9UBU3 24-51, looked up) [OXE-103]", "values": [{"measurement": "serum half-life", "setting": "[1]", "result": "about 30 minutes"}, {"measurement": "20% Responders - QOLIBRI: Number of Responders", "setting": "[2]; Day 1", "result": 0}, {"measurement": "20% Responders - QOLIBRI: Responder %", "setting": "[2]; Day 1", "result": 0, "unit": "%"}, {"measurement": "30% Responders - QOLIBRI: Number of Responders", "setting": "[2]; Day 1", "result": 0}, {"measurement": "30% Responders - QOLIBRI: Responder %", "setting": "[2]; Day 1", "result": 0, "unit": "%"}, {"measurement": "20% Responders - QOLIBRI: Number of Responders", "setting": "[2]; Day 4", "result": 4}, {"measurement": "20% Responders - QOLIBRI: Responder %", "setting": "[2]; Day 4", "result": 31, "unit": "%"}, {"measurement": "30% Responders - QOLIBRI: Number of Responders", "setting": "[2]; Day 4", "result": 3}, {"measurement": "30% Responders - QOLIBRI: Responder %", "setting": "[2]; Day 4", "result": 23, "unit": "%"}, {"measurement": "20% Responders - QOLIBRI: Number of Responders", "setting": "[2]; Day 8", "result": 4}, {"measurement": "20% Responders - QOLIBRI: Responder %", "setting": "[2]; Day 8", "result": 31, "unit": "%"}, {"measurement": "30% Responders - QOLIBRI: Number of Responders", "setting": "[2]; Day 8", "result": 4}, {"measurement": "30% Responders - QOLIBRI: Responder %", "setting": "[2]; Day 8", "result": 31, "unit": "%"}, {"measurement": "20% Responders - QOLIBRI: Number of Responders", "setting": "[2]; Day 11", "result": 7}, {"measurement": "20% Responders - QOLIBRI: Responder %", "setting": "[2]; Day 11", "result": 54, "unit": "%"}, {"measurement": "30% Responders - QOLIBRI: Number of Responders", "setting": "[2]; Day 11", "result": 5}, {"measurement": "30% Responders - QOLIBRI: Responder %", "setting": "[2]; Day 11", "result": 38, "unit": "%"}, {"measurement": "20% Responders - QOLIBRI: Number of Responders", "setting": "[2]; Day 15", "result": 7}, {"measurement": "20% Responders - QOLIBRI: Responder %", "setting": "[2]; Day 15", "result": 54, "unit": "%"}, {"measurement": "30% Responders - QOLIBRI: Number of Responders", "setting": "[2]; Day 15", "result": 5}, {"measurement": "30% Responders - QOLIBRI: Responder %", "setting": "[2]; Day 15", "result": 38, "unit": "%"}, {"measurement": "20% Responders - QOLIBRI: Number of Responders", "setting": "[2]; Day 21", "result": 9}, {"measurement": "20% Responders - QOLIBRI: Responder %", "setting": "[2]; Day 21", "result": 69, "unit": "%"}, {"measurement": "30% Responders - QOLIBRI: Number of Responders", "setting": "[2]; Day 21", "result": 7}, {"measurement": "30% Responders - QOLIBRI: Responder %", "setting": "[2]; Day 21", "result": 54, "unit": "%"}, {"measurement": "20% Responders - QOLIBRI: Number of Responders", "setting": "[2]; Day 44", "result": 11}, {"measurement": "20% Responders - QOLIBRI: Responder %", "setting": "[2]; Day 44", "result": 85, "unit": "%"}, {"measurement": "30% Responders - QOLIBRI: Number of Responders", "setting": "[2]; Day 44", "result": 10}, {"measurement": "30% Responders - QOLIBRI: Responder %", "setting": "[2]; Day 44", "result": 77, "unit": "%"}, {"measurement": "durability of treatment effects", "setting": "[3]; across study endpoints", "result": "at least 44 days"}, {"measurement": "Responder Rate (RR)", "setting": "[3]; both endpoints, by 40 days after start of treatment", "result": 80, "unit": "%"}, {"measurement": "onset of treatment effect", "setting": "[3]; persistently effected population", "result": "8 to 10", "unit": "days"}, {"measurement": "improvement", "setting": "[3]; within 8-10 days of treatment, interim time point", "result": "greater than 20%"}, {"measurement": "effects of long term use", "setting": "[4]", "result": "increased appetite, weight gain, and adiposity"}, {"measurement": "safety in previous studies", "setting": "[4]", "result": "quite safe"}]}
